Marks after values point to notes of the source that are not given here.
Tests used:
Format in all cases: in vivo
ICR male mice [1] = test: Open field test; details: 60 minutes before testing
Method: This test is based on anxiety behaviors of rodents in the central area of an open field. When a mouse stayed in the central area for a longer period of time, it was deemed that there were more anti-stress, anti-depressant and anti-anxiety effects. ICR male mice (30 g to 35 g) were purchased from Orient Bio Korea Co. (Korea) and allowed to acclimatize for 1 week before being tested in a controlled animal facility (temperature 22±2° C., humidity 55±5%). When treatment began, the weight of the animals was 35±5% g. The test compound for oral administration was dissolved in 30% PEG400 and administered at a dose per body weight of 10 mL/kg 60 minutes before testing. The test compound for intraperitoneal administration was dissolved in 20% Tween80 and administered at a dose per body weight of 10 mL/kg 60 minutes before testing. The control group was provided with a corresponding vehicle. The open field was measured and analyzed by OPTO-VARIMEX instrument (Columbus Instruments, USA). The mouse was placed in the center of the open field, and its behavior was measured for 10 minutes. The open field was divided into 16 equal parts, and the middle area was established as the central area. Locomotor activity was measured using a spontaneous momentum (distance moved in cm), and measurement of anxiety behavior was obtained using the time spent in the central area as an index. In the open field experiment, when the time during which the mouse stayed in the central area was longer, it was evaluated that the symptoms of anxiety were alleviated, and when the time was shorter, the mouse was evaluated to have symptoms of anxiety (Reference; Prut L, Belzung C. 2003. The open field as a paradigm to measure the effects of drugs on anxiety-like behaviors: a review. Eur J Pharmacol. February 28; 463(1-3):3-33.).

ICR male mice [2] = test: Forced swim test (mouse, mFST); details: for Immobile posture time (sec.)/4 minutes, Treatment: mouse, administered orally 60 minutes before testing
Method: (§1) In order to determine the anti-depressant effect in rodents, the forced swim test was performed with rats and mice. The forced swim test causes an immobile state by forcing an animal to swim in a confined space. It reflects a state of despair giving up evading such a circumstance. ICR male mice (25 g to 30 g) and Wistar male rats (240 g to 260 g) were purchased from Samtako Bio Korea Co. (Korea) and allowed to acclimatize for 1 week before being tested in a controlled animal facility (temperature 22±2° C., humidity 55±5%). The test compound was dissolved in 20% Tween80 and administered orally 60 minutes before testing. The control group was provided with a corresponding vehicle. […] 15 minutes of forced swimming was performed a day before the experiment. On the day of the experiment, the animal was placed in the cylinder 60 minutes after the administration of the compound and was videotaped for 6 minutes. In the recorded videos, time during which the animal placed its head on the water and remained still without movement was measured based on the remaining 4 minutes excluding the first 2 minutes. It was evaluated that the lower the value of the immobile posture time, the greater the anti-depressant action (Reference; Porsolt R D, Le Pichon M. Jalfre M. 1997. Depression: a new animal model sensitive to antidepressant treatments. Nature. April 21; 266(5604):730-2.).
(§2) The result was shown as the standard error of measurement (SEM) of mean value t mean value. Behavioral data were analyzed by one-way ANOVA. For statistical significance, a value of <0.05 was taken (***p<0.001, **p=0.001˜0.01, *p=0.01˜0.05). Data management and statistics were performed using the Prism software of Windows version 4 (GraphPad Softward Co., San Diego, CA, USA).
(§3) Based on the results of Table 7, the ED50 value of the compound of Example 2 was calculated and shown in Table 7, and after 30 mg/kg and 60 mg/kg of the compounds of the other remaining examples were administered based on TD50 values to perform the forced swim tests, respectively, the administration doses with protected efficacy and protection % at the corresponding administration doses were shown in Table 7.

Wistar male rats = test: Forced swim test (rat, rFST); details: for Immobile posture time (sec.)/4 minutes, Treatment: rat, administered orally 60 minutes before testing
Method: as §1, §2, §3

[3] = test system: rats that gave birth, chronic administration of corticosterone; test: PPD (chronic CORT induced PPD model), forced swim test; details: postpartum depression rat, 30 mg/kg, intraperitoneally 15 minutes before testing
Method: In order to confirm the effect on postpartum depression in rats, the forced swim test was conducted after chronic administration of corticosterone, a depression-causing substance, to rats that gave birth. The forced swim test causes an immobile state by forcing an animal to swim in a confined space. It reflects a state of despair giving up evading such a circumstance. Rats on the 15th day of pregnancy were purchased from Koatech (Korea) and allowed to acclimatize for 1 week before being tested in a controlled animal facility (temperature 22±2° C., humidity 55±5%). […] In the recorded videos, the time during which the animal placed its head on the water and remained still without movement was measured based on the remaining 4 minutes excluding the first 2 minutes. It was evaluated that the lower the value of the immobile posture time, the greater the anti-depressant action (Reference; S. Brummelte et al. Chronic corticosterone during pregnancy and affects maternal care, cell proliferation and depressive-like behavior in the dam. Hormones and Behavior 58 (2010) 769˜779, Porsolt R D, Le Pichon M, Jalfre M. 1997. Depression: a new animal model sensitive to anti-depressant treatments. Nature. April 21; 266(5604):730˜2.).
The result was shown as the standard error of measurement (SEM) of mean value±mean value. Behavioral data were analyzed by one-way ANOVA. […]

**Q.** Which results are given for CC1(C)O[C@@H](COS(N)(=O)=O)[C@H](c2ccccc2Cl)O1 [Example 2, ((4S,5S)-5-(2-chlorophenyl)-2,2-dimethyl-1,3-dioxolan-4-yl)methyl sulfamate]?
**A.** Spontaneous momentum(cm)/10 minutes, Treatment (ICR male mice [1]; intraperitoneal, 10 mg/kg): 5038.2 ± 455.9 cm/10 minutes; Time of staying in central area (sec.)/10 minutes, Treatment (ICR male mice [1]; intraperitoneal, 10 mg/kg): 31.6 ± 2.7 sec./10 minutes; Spontaneous momentum(cm)/10 minutes, Treatment (ICR male mice [1]; intraperitoneal, 30 mg/kg): 4249.4 ± 402.4 cm/10 minutes; Time of staying in central area (sec.)/10 minutes, Treatment (ICR male mice [1]; intraperitoneal, 30 mg/kg): 35.6 ± 3.1 sec./10 minutes; Spontaneous momentum(cm)/10 minutes, Treatment (ICR male mice [1]; oral, 10 mg/kg): 4997.3 ± 491.6 cm/10 minutes; Time of staying in central area (sec.)/10 minutes, Treatment (ICR male mice [1]; oral, 10 mg/kg): 36.6 ± 4.6 sec./10 minutes; Spontaneous momentum(cm)/10 minutes, Treatment (ICR male mice [1]; oral, 30 mg/kg): 5033.5 ± 233.8 cm/10 minutes; Time of staying in central area (sec.)/10 minutes, Treatment (ICR male mice [1]; oral, 30 mg/kg): 44.7 ± 3.5 sec./10 minutes; ED50 (ICR male mice [2]; mouse forced swim test, po): 23.5 mg/kg; Immobile posture time (sec.)/4 minutes, Treatment (ICR male mice [2]; 10 mg/kg): 105.7 ± 6.9** sec./4 minutes; Immobile posture time (sec.)/4 minutes, Treatment (ICR male mice [2]; 20 mg/kg): 80.5 ± 8.6** sec./4 minutes; Immobile posture time (sec.)/4 minutes, Treatment (ICR male mice [2]; 40 mg/kg): 61.2 ± 20.1** sec./4 minutes; ED50 (Wistar male rats; rat forced swim test, po): 13.3 mg/kg; Immobile posture time (sec.)/4 minutes, Treatment (Wistar male rats; 5 mg/kg): 160.7 ± 3.8 sec./4 minutes; Immobile posture time (sec.)/4 minutes, Treatment (Wistar male rats; 10 mg/kg): 117.3 ± 12.2** sec./4 minutes; Immobile posture time (sec.)/4 minutes, Treatment (Wistar male rats; 20 mg/kg): 51.0 ± 11.6** sec./4 minutes; Immobile posture time (sec.)/4 minutes, Treatment [3]: 5.07 sec./4 minutes

From patent US11896593B2, “Sulfamate derivative compounds for use in treating or alleviating a psychiatric disorder” (Bio-Pharm Solutions Co., Ltd., priority 2020, dated 2024)
